# Experimental data: patent publication US6541505B1, “Substituted (aminoiminomethyl or aminomethyl) benzoheteroaryl compounds” (Aventis Pharmaceuticals Inc., priority 1998, dated 2003)
# Experiments:
# [1] = tested on: rabbit carotid artery air-drying injury model; settings: after vascular injury; cited from earlier work
SMILES,neointimal proliferation [1],melting point [°C]
CC(=N)N1CC[C@H](Oc2ccc([C@H](Cc3ccc4ccc(C(=N)N)cc4c3)C(=O)O)cc2)C1 [DX-9065a],less neointimal proliferation,
"N=C(N)c1c[nH]c2ccc(CCNC(=O)c3ccc(-n4cccc4)nc3)cc12 [Example 1ab, N-(2-[3-Carbamimidoylindol-5-yl]ethyl)-6-pyrrol-1-ylnicotinamide]",,213 to 214
"N=C(N)c1c[nH]c2ccc(CCNC(=O)c3ccc(-n4cccn4)nc3)cc12 [Example 1ac, N-(2-[3-Carbamimidoylindol-5-yl]ethyl)-6-pyrazol-1-ylnicotinamide]",,235 to 236
"COc1ccc(-c2ccc(C(=O)NCCc3ccc4c(c3)c(C(=N)N)cn4C)cc2)cn1 [Example 1ad, N-(2-[3-Carbamimidoyl-1-methylindol-5-yl]ethyl)-4-(6-methoxypyrid-3-yl)benzamide]",,237 to 238
"CN(C)CCn1cc(-c2ccc(C(=O)NCCc3ccc4[nH]cc(C(=N)N)c4c3)cc2)ccc1=O [Example 1ap, N-(2-[3-Carbamimidoylindol-5-yl]ethyl)-4-(1-[2-dimethylaminoethyl]-6-oxo-1,6-dihydropyridin-3-yl)benzamide]",,94 to 97
"N=C(N)c1c[nH]c2ccc(CCNC(=O)c3ccc(-c4ccc(=O)n(CC(N)=O)c4)cc3)cc12 [Example 1aq, N-(2-[3-Carbamimidoylindol-5-yl]ethyl)-4-(1-carbamoylmethyl-6-oxo-1,6-dihydropyridin-3-yl)benzamide]",,244 to 245
"N=C(N)c1c[nH]c2ccc(CCNC(=O)c3ccc(-c4ccccn4)s3)cc12 [Example 1c, 5-(Pyrid-2-yl)-thiophene-2-carboxylic acid 2-(3-carbamimidoyl-5-indolyl)ethyl amide]",,198 to 200
"N=C(N)c1c[nH]c2ccc(CCNC(=O)c3ccc(-n4ccnc4)cc3)cc12 [Example 1g, N-(2-[3-Carbamimidoylindol-5-yl]ethyl)-4-imidazol-1-ylbenzamide]",,191 to 194
"N=C(N)c1c[nH]c2ccc(CCNC(=O)c3ccc(-c4cnc[nH]4)cc3)cc12 [Example 1h, N-(2-[3-Carbamimidoylindol-5-yl]ethyl)-4-(3H-imidazol-4-yl)benzamide]",,52 to 54
"N=C(N)c1c[nH]c2ccc(CCNC(=O)c3ccc(-c4ncns4)cc3)cc12 [Example 1i, N-(2-[3-Carbamimidoylindol-5-yl]ethyl)-4-(1,2,4)thiadiazol-5-ylbenzamide]",,222 to 224
"COc1ccc(-c2ccc(C(=O)NCCc3ccc4[nH]cc(C(=N)N)c4c3)cc2)cn1 [Example 1p, N-(2-[3-Carbamimidoylindol-5-yl]ethyl)-4-(6-methoxypyrid-3-yl)benzamide]",,164 to 167
"N=C(N)c1c[nH]c2ccc(CCNC(=O)c3ccc(-c4ccc(=O)[nH]c4)cc3)cc12 [Example 1v, N-(2-[3-carbamimidoyl-1H-indol-5-yl]ethyl)-4-(6-oxo-1,6-dihydro-pyrid-3-yl)benzamide]",,152 to 156
"N=C(N)c1c[nH]c2ccc(CCNC(=O)c3ccc(NCCO)nc3)cc12 [Example 1z, N-(2-[3-Carbamimidoylindol-5-yl]ethyl)-6-(2-hydroxyethylamino)nicotinamide]",,102 to 105
